The values that follow are results of earlier work, collected in patent publication US20230079480A1, “STABLE NON-AQUEOUS COMPOSITIONS OF FUNCTIONAL INGREDIENTS AND METHODS OF MAKING THE SAME” (Nulixir Inc., priority 2021, published 2023).

System in the first data set: not given
As to conditions: in vivo.
For the molecule `COc1ccc2cc3[n+](cc2c1OC)CCc1cc2c(cc1-3)OCO2` [berberine], the bioavailability entry was “below 1%”.

System in another data set: not given
Conditions: not given
With `COc1ccc2cc3[n+](cc2c1OC)CCc1cc2c(cc1-3)OCO2` [berberine], the “solubility in ethanol as a function of water content” value is “decreases rapidly with water content”.

System in another data set: not given
As to conditions: pH 7.
Take `COc1ccc([C@@]23C=CC(=O)C[C@@H]2N(C)CC3)cc1OC` [mesembrenone]: the “log P” value is on record as about 1.3.
`COc1ccc(C23C=CC(O)CC2N(C)CC3)cc1OC` (stereo not drawn) [mesembrenol]: the “log P” value is recorded as about 2.4.
`CC(C)=C[C@H]1C[C@](C)(O)[C@@H]2[C@H]3CC[C@@H]4[C@@]5(C)CC[C@H](O[C@@H]6OC[C@H](O)[C@H](O[C@@H]7O[C@H](CO)[C@@H](O)[C@H](O)[C@H]7O)[C@H]6O[C@@H]6O[C@@H](CO)[C@H](O)[C@H]6O)C(C)(C)[C@@H]5CC[C@@]4(C)[C@@]34CO[C@@]2(C4)O1` [bacopaside X]: the “log P” value was about 2.2.
For the molecule `CC(C)=C[C@H]1C[C@](C)(O)[C@H]2[C@H]3CC[C@@H]4[C@@]5(C)CC[C@H](O[C@@H]6O[C@H](CO)[C@@H](O)[C@H](O[C@@H]7O[C@H](CO)[C@@H](O)[C@H](O)[C@H]7O)[C@H]6O[C@@H]6O[C@@H](CO)[C@H](O)[C@H]6O)C(C)(C)[C@@H]5CC[C@@]4(C)[C@@]34CO[C@@]2(C4)O1` [bacoside A3], the “log P” value is about 2.1.
For `CC(C)=CCC[C@](C)(O[C@@H]1O[C@H](CO[C@@H]2O[C@H](CO)[C@@H](O)[C@H](O)[C@H]2O)[C@@H](O)[C@H](O)[C@H]1O)[C@H]1CC[C@]2(C)[C@@H]1[C@H](O)C[C@@H]1[C@@]3(C)CC[C@H](O[C@@H]4O[C@H](CO)[C@@H](O)[C@H](O)[C@H]4O[C@@H]4O[C@H](CO)[C@@H](O)[C@H](O)[C@H]4O)C(C)(C)[C@@H]3CC[C@]12C` [ginsenoside rb1], the “log P” value was about −1.
For the molecule `CC(C)=CCC[C@](C)(O[C@@H]1O[C@H](CO)[C@@H](O)[C@H](O)[C@H]1O)[C@H]1CC[C@]2(C)[C@@H]1[C@H](O)C[C@@H]1[C@@]3(C)CC[C@H](O)C(C)(C)[C@@H]3[C@@H](O[C@@H]3O[C@H](CO)[C@@H](O)[C@H](O)[C@H]3O)C[C@]12C` [ginsenoside rg1], the “log P” value is recorded as about 0.8.
On to `CC(C)=C[C@@H]1CO[C@]23C[C@]4(CO2)[C@H](CC[C@@H]2[C@@]5(C)CC[C@H](O[C@@H]6OC[C@H](O)[C@H](O[C@@H]7O[C@H](CO)[C@@H](O)[C@H](O)[C@H]7O)[C@H]6O[C@@H]6O[C@@H](CO)[C@H](O)[C@H]6O)C(C)(C)[C@@H]5CC[C@]24C)[C@H]3[C@@]1(C)O` [bacopasaponin C], for which the “log P” value is given as about 2.

The same data set, now with this note: water and n-octanol reference phases; pH=7 unless stated otherwise.
Consider `COc1cc2c(c(OC)c1OC)-c1c(cc3c(c1OC)OCO3)CC(C)C(C)C2` (single isomer, unassigned; (-)) [(−)-schisandrin B], for which the “log P” value was about 4.
Regarding bacopaside B, the “log P” value is reported as about 2.8.
For the molecule `Cn1c(=O)c2c(n(C)c1=O)n(C)c(=O)n2C` [theacrine], the “log P” value was about −1.06.
Consider `COC1=CC(=O)OC(/C=C/c2ccc(OC)cc2)C1` (stereo not drawn) [5,6-dihydroyangonin], for which the “log P” value is about 2.5.
Regarding `COc1cc(/C=C/c2ccccc2)oc(=O)c1` [5,6-dehydrokawain], the lipophilicity (log P) is about 2.9.
Regarding `COc1cc2c(c(OC)c1OC)-c1c(cc(OC)c(OC)c1OC)C[C@](C)(O)[C@@H](C)C2` [(+)-schisandrin], the lipophilicity (log P) was about 5.
As to `COC1=CC(=O)O[C@@H](CCc2ccc3c(c2)OCO3)C1` [7,8-dihydromethysticin], the log partition coefficient (log P) is recorded as about 2.2.
`COc1cc([C@H]2Oc3cc(O)c4c(=O)c(O)c(-c5ccc(O)cc5)oc4c3O[C@@H]2CO)ccc1O` [rhodiolin]: the “log P” value is listed as about 2.
With herinacine A, the lipophilicity (log P) is about 2.5.
Turning to schisandroside C, the “log P” value is recorded as about 1.6.
Turning to `COc1cc2c(c(OC)c1OC)-c1c(cc(OC)c(OC)c1OC)C[C@](C)(O)[C@@H](C)C2` [schisandrol A], the “log P” value is about 3.4.
Regarding `COc1ccc([C@@]23CCC(=O)C[C@@H]2N(C)CC3)cc1OC` [mesembrine], the “log P” value is reported as about 1.5.
As for `N#C[C@@]1(O[C@@H]2O[C@H](CO)[C@@H](O)[C@H](O)[C@H]2O)C=C[C@@H](O)C1` [tetraphyllin B], the “log P” value is given as about −2.5.
As to `COc1cc2c(c(OC)c1OC)-c1c(cc(OC)c(OC)c1OC)C[C@H](C)[C@H](C)C2` [(−)-schisandrin A], the log partition coefficient (log P) is about 3.6.
In the case of `COc1nc2c(c(=O)n1C)n(C)c(=O)n2C` [methylliberine], the log partition coefficient (log P) is about −0.083.
As to `CC1=C(CO)C(=O)O[C@@H]([C@@H](C)[C@H]2CC[C@H]3[C@@H]4C[C@H](Cl)[C@]5(O)[C@@H](O)C=CC(=O)[C@]5(C)[C@H]4CC[C@]23C)C1` [6a-chloro-5b-hydroxywithaferin A], the log partition coefficient (log P) is recorded as about 3.2.
For the molecule `CC(=O)OC1C=CC(=O)N(C(=O)CCc2ccccc2)C1` (stereo not drawn) [pipermethystine], the lipophilicity (log P) is on record as about 1.8.
As for `COc1c2c(cc3c1-c1c(cc4c(c1OC)OCO4)C[C@H](C)[C@H](C)C3)OCO2` [(−)-schisandrin C], the “log P” value is given as about 3.5.
Regarding (R)-kawain, the “log P” value is about 2.7.
`COc1ccc(CCc2cc(OC)cc(=O)o2)cc1` [7,8-dihydroyangonin]: the lipophilicity (log P) was about 2.9.
For `COc1cc(/C=C\c2ccc(OC)c(O)c2)oc(=O)c1` [11-hydroxyyangonin], the “log P” value is reported as about 2.2.
Turning to hericerin, the “log P” value is on record as about 6.4.
For tortuosomine, the lipophilicity (log P) is recorded as about 3.

A further data set has as its system many strains of fungi.
Conditions: not given
With `O=CC=Cc1ccccc1` [Cinnamaldehyde], the “inhibitory activity against fungi” value was “strong inhibitory activity against many strains of fungi”.
